# From PMC8860869 (Chemical research in toxicology, 2022)
# Experiments:
# Test in all cases: cross-linking in cells, immunoblot
# Assay type in all cases: cell-based
# Details in all cases: covalent; living yeast, toxic concentrations
# Mpd1 = target: T1, Mpd1 (Saccharomyces cerevisiae, UniProt Q12404)
# T1 sequence (Q12404 22-318): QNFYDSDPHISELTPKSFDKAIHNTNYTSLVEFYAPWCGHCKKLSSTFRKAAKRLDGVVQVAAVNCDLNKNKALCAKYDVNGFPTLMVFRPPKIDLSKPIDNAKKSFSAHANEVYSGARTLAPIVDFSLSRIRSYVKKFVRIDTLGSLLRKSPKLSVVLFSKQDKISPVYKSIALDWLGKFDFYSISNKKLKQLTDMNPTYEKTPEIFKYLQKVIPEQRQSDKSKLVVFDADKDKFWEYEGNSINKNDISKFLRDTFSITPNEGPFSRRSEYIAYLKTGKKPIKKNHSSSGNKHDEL
# Eug1 = target: T2, Eug1 (Saccharomyces cerevisiae, UniProt P32474)
# T2 sequence (P32474 30-517): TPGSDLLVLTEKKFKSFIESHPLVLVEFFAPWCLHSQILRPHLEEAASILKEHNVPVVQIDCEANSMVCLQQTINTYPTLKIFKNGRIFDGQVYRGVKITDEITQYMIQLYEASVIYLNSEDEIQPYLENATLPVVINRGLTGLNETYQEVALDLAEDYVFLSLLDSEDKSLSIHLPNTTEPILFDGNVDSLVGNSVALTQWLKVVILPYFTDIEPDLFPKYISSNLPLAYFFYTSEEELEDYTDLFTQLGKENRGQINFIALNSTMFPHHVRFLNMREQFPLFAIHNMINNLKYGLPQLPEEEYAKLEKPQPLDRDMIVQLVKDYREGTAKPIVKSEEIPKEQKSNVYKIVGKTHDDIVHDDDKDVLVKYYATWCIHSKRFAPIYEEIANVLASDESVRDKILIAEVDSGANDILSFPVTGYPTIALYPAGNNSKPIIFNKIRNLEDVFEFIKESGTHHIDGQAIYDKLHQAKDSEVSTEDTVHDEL
# Mpd2 = target: T3, Mpd2 (Saccharomyces cerevisiae, UniProt Q99316)
# T3 sequence (Q99316 23-277): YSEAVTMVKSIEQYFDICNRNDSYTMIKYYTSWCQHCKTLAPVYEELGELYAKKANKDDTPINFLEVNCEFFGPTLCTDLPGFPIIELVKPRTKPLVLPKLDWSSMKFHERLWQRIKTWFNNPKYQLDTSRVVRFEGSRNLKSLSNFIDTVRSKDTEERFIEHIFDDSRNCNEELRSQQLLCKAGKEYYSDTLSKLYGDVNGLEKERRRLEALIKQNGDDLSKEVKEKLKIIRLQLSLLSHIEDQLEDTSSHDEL
# Pdi1 = target: T4, Pdi1 (Saccharomyces cerevisiae, UniProt P17967)
# T4 sequence (P17967 29-522): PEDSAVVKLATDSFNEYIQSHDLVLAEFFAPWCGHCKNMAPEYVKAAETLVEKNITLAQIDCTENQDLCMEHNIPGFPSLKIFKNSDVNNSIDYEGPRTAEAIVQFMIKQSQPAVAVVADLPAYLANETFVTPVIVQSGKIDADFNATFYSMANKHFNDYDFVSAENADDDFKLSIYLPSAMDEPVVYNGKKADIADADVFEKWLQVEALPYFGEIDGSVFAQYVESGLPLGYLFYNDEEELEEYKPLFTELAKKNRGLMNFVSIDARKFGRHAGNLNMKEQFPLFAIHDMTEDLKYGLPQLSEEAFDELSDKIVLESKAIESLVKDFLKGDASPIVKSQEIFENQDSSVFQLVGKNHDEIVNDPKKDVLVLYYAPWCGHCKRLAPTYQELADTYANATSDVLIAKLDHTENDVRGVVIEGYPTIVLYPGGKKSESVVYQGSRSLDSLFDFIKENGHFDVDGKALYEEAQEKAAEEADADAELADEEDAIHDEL
smiles,measurement,setting,value
"C1OC1C1CO1 (stereo not shown) [1,2,3,4-diepoxybutane]","cross-linking in cells, immunoblot",Mpd1,Each of these proteins also underwent protein cross-linking in cells treated with toxic concentrations
same,"cross-linking in cells, immunoblot",Eug1,Each of these proteins also underwent protein cross-linking in cells treated with toxic concentrations
same,"cross-linking in cells, immunoblot",Mpd2,Each of these proteins also underwent protein cross-linking in cells treated with toxic concentrations
same,"cross-linking in cells, immunoblot",Pdi1,Each of these proteins also underwent protein cross-linking in cells treated with toxic concentrations
